This experiment relates to STAT3 transcriptional activity. In words: STAT3 transcriptional activity inhibitory effect, luciferase reporter assay with IL-6 stimulation. It is filed as cell-based, human. The note with it: for inhibition at 1 µM: Homo sapiens, read-out: STAT3 transcriptional activity inhibitory effect % inhibition, 50% or less; for inhibition at 1 µM / STAT3 transcriptional activity inhibitory effect % inhibition, 50-70% / STAT3 transcriptional activity inhibitory effect % inhibition, 70% or more: IL-6 (10 ng/mL), 24 hours, HEK293 cells with STAT3 promoter and luciferase reporter; for STAT3 activity inhibitory effect (in words): compounds at 1 µM compared with BBI-608 at 3 µM. The protocol:
For HEK293 cells, an immortalized human kidney cell line, transformed HEK293 cells, in which an STAT3 promoter and a luciferase reporter were stably expressed, were used. The HEK293 cells, in which the STAT3 promoter was stably expressed, were cultured in a cell incubator at 5% CO2 and 37°C using an MEM (10% FBS) medium, and then an inhibitory effect on STAT3 transcriptional activity was confirmed by the following method.
First, HEK293 cells, in which the STAT3 promoter was stably expressed, were inoculated into a 96-well plate (white, clear bottom culture plate) at a density of 2X 10^4 cells/well, and then cultured in an incubator at 37°C and 5% CO2 for 24 hours. Then, the compound synthesized according to the above synthesis example (1 µM) or BBI-608 (Napabucasin; comparative group 3 µM) and IL-6 (10 ng/mL) were treated together, and reacted in an incubator at 37°C and 5% CO2 for 24 hours. Afterwards, the culture medium in the 96-well plate was removed, and the cells were lysed by treatment with Passive Lysis Buffer (Promega/Cat. Number E1941). Luciferase activity was tested using the Luciferase Assay System (Promega/Cat. Number E1501), and a luminescence value was measured using a microplate reader. A well not treated with IL-6 (10 ng/mL) without test substance treatment was used as a negative control, and a well treated with IL-6 (10 ng/mL) without test substance treatment was used as a positive control. A degree of STAT3 transcriptional activity inhibitory effect by the compound of the present invention was evaluated by comparing the luminescence values from each well.
A general note: A reporter such as luciferase makes a cellular process visible.

The term inhibition denotes the relative decrease from the control value, in per cent. On to `c1ccc2c(-c3ccc4c(c3)sc3ccccc34)cncc2c1` [Compound 11, 4-(dibenzo[b,d]thiophen-3-yl)isoquinoline], for which, where the note is “compound concentration of 1 µM”, the inhibition at 1 µM is no more than 50%.

In the case of `c1ccc2c(-c3ccc4c(c3)oc3ccccc34)cncc2c1` [Compound 12, 4-(dibenzo[b,d]furan-3-yl)isoquinoline], the inhibition at 1 µM (compound concentration of 1 µM) was no more than 50%.

As to `CC(=O)c1cc2c(o1)C(=O)c1ccccc1C2=O` [BBI-608, Napabucasin, reference compound], for the setting “comparative group at 3 uM”, the “STAT3 transcriptional activity inhibitory effect % inhibition, 50-70%” value is given as “○ (50-70%)”.

For `O=c1c2ccccc2oc2ccc(-c3cncc4ccccc34)cc12` [Compound 3, 2-(isoquinolin-4-yl)-9H-xanthen-9-one], the inhibition at 1 µM (compound concentration of 1 µM) was no more than 50%.

For `O=C1C(=O)c2cc(-c3cncc4ccccc34)ccc2-c2ccc(Br)cc21` [Compound 2, 2-bromo-7-(isoquinolin-4-yl)phenanthrene-9,10-dione], the inhibition at 1 µM (compound concentration of 1 µM) is no more than 50%.

With `O=C1c2ccccc2-c2ccc(-c3cccc4ccncc34)cc21` [Compound 17, 2-(isoquinolin-8-yl)-9H-fluoren-9-one], the inhibition at 1 µM (compound concentration of 1 µM) was no more than 50%.

With `O=c1c2ccccc2sc2ccc(-c3cncc4ccccc34)cc12` [Compound 4, 2-(isoquinolin-4-yl)-9H-thioxanthen-9-one], the “STAT3 transcriptional activity inhibitory effect % inhibition, 50-70%” value (compound concentration of 1 µM) is “○ (50-70%)”.

Take `O=C1c2ccccc2-c2ccc(-c3cccc4nccn34)cc21` [Compound 19, 2-(imidazo[1,2-a]pyridin-5-yl)-9H-fluoren-9-one]: under “compound concentration of 1 µM”, the inhibition at 1 µM was no more than 50%.

As for `c1ccc2c(-c3ccc4c5c([nH]c4c3)CCCC5)cncc2c1` [Compound 16, 7-(isoquinolin-4-yl)-2,3,4,9-tetrahydro-1H-carbazole], the “STAT3 transcriptional activity inhibitory effect % inhibition, 50-70%” value (compound concentration of 1 µM) was “○ (50-70%)”.

On to `O=C1c2ccccc2-c2ccc(-c3cccc4cnccc34)cc21` [Compound 18, 2-(isoquinolin-5-yl)-9H-fluoren-9-one], for which, for the setting “compound concentration of 1 µM”, the “STAT3 transcriptional activity inhibitory effect % inhibition, 50-70%” value is given as “○ (50-70%)”.

Turning to `O=C1c2ccccc2-c2ccc(-c3cccn4ccnc34)cc21` [Compound 23, 2-(imidazo[1,2-a]pyridin-8-yl)-9H-fluoren-9-one], the “STAT3 activity inhibitory effect (in words)” value is “excellent STAT3 activity inhibitory effect”. The “STAT3 transcriptional activity inhibitory effect % inhibition, 70% or more” value (compound concentration of 1 µM) was “○ (70% or more)”.

With `O=C1c2ccccc2-c2ccc(-c3cnn4ccccc34)cc21` [Compound 9, 2-(pyrazolo[1,5-a]pyridin-3-yl)-9H-fluoren-9-one], the “STAT3 activity inhibitory effect (in words)” value is reported as “excellent STAT3 activity inhibitory effect”. In addition, for the setting “compound concentration of 1 µM”, the “STAT3 transcriptional activity inhibitory effect % inhibition, 70% or more” value is “○ (70% or more)”.

In the case of `c1ccc2c(-c3ccc4c(c3)[nH]c3ccncc34)cncc2c1` [Compound 13, 7-(isoquinolin-4-yl)-5H-pyrido[4,3-b]indole], the “STAT3 activity inhibitory effect (in words)” value is reported as “excellent STAT3 activity inhibitory effect”. Moreover, the “STAT3 transcriptional activity inhibitory effect % inhibition, 70% or more” value (compound concentration of 1 µM) is “○ (70% or more)”.

As for `O=C1c2ccccc2-c2ccc(-c3cccn4cnnc34)cc21` [Compound 20, 2-([1,2,4]triazolo[4,3-a]pyridin-8-yl)-9H-fluoren-9-one], the inhibition at 1 µM (compound concentration of 1 µM) was no more than 50%.

Take `O=C1c2ccccc2-c2ccc(-c3nccc4ccccc34)cc21` [Compound 22, 2-(isoquinolin-1-yl)-9H-fluoren-9-one]: where the note is “compound concentration of 1 µM”, the inhibition at 1 µM was no more than 50%.

Consider `O=C1c2ccccc2-c2ccc(-c3cncc4nccnc34)cc21` [Compound 5, 2-(pyrido[3,4-b]pyrazin-8-yl)-9H-fluoren-9-one], for which the “STAT3 transcriptional activity inhibitory effect % inhibition, 50-70%” value (compound concentration of 1 µM) is “○ (50-70%)”.

Regarding `O=C1c2ccccc2-c2ccc(-c3nccc4ncccc34)cc21` [Compound 8, 2-(1,6-naphthyridin-5-yl)-9H-fluoren-9-one], the “STAT3 activity inhibitory effect (in words)” value is on record as “excellent STAT3 activity inhibitory effect”. The “STAT3 transcriptional activity inhibitory effect % inhibition, 70% or more” value (compound concentration of 1 µM) is recorded as “○ (70% or more)”.

For the compound `O=C1c2ccccc2-c2ccc(-c3cnc4ccccn34)cc21` [Compound 10, 2-(imidazo[1,2-a]pyridin-3-yl)-9H-fluoren-9-one], the inhibition at 1 µM (compound concentration of 1 µM) is no more than 50%.

As to `O=C1c2ccccc2-c2ccc(-c3cncc4cccnc34)cc21` [Compound 7, 2-(1,6-naphthyridin-8-yl)-9H-fluoren-9-one], the “STAT3 activity inhibitory effect (in words)” value is given as “excellent STAT3 activity inhibitory effect”. Further, where the note is “compound concentration of 1 µM”, the “STAT3 transcriptional activity inhibitory effect % inhibition, 70% or more” value is recorded as “○ (70% or more)”.

On to `c1ccc2c(-c3ccc4c(c3)[nH]c3ccccc34)cncc2c1` [Compound 15, 2-(isoquinolin-4-yl)-9H-carbazole], for which the “STAT3 transcriptional activity inhibitory effect % inhibition, 50-70%” value (compound concentration of 1 µM) is listed as “○ (50-70%)”.

Regarding `c1ccc2c(-c3ccc4c5c([nH]c4c3)CCC5)cncc2c1` [Compound 21, 6-(isoquinolin-4-yl)-1,2,3,4-tetrahydrocyclopenta[b]indole], the “STAT3 activity inhibitory effect (in words)” value is recorded as “excellent STAT3 activity inhibitory effect”. For the setting “compound concentration of 1 µM”, the “STAT3 transcriptional activity inhibitory effect % inhibition, 70% or more” value was “○ (70% or more)”.

For the compound `O=C1c2ccccc2-c2ccc(-c3cncc4ccccc34)cc21` [Compound 14, 2-(isoquinolin-4-yl)-9H-fluoren-9-one], the “STAT3 activity inhibitory effect (in words)” value is “excellent STAT3 activity inhibitory effect”. Moreover, the “STAT3 transcriptional activity inhibitory effect % inhibition, 70% or more” value (compound concentration of 1 µM) is on record as “○ (70% or more)”.

Values taken from patent EP4424671A1, “NOVEL TRICYCLIC DERIVATIVE COMPOUND AND USE THEREOF” (Huchembio Co., Ltd., priority 2021, dated 2023).
